Measurements: patent publication US10590384B2, “Luterial and method for isolating and culturing the same” (LUTERION CO., LTD., priority 2014, dated 2020)

Legend:
[1] = system: SKOV3 ovarian cancer cell line; assay: MTT assay, growth inhibition of SKOV3 ovarian cancer cell line; type: cell-based; conditions: positive control drug; cell line not stated (SKOV3 and A2780 tested, FIG. 27)
[2] = Measurement of ATP content in media (luciferin-luciferase reaction, luminometer); conditions: luterial media with SSF (12 hr) compared with luterial media with SSH (12 hr)
Protocol: SSH and SSF were further added to the media and their effects on ATP production by luterial were examined. A mediacontaining SSF induced higher ATP production by luterialcompared to a mediawith SSH, thus finding a medium mix that is capable of efficiently increasing the ATP production by luterial (FIG. 18).
10 mL of each of four media, including a control, luterial, luterial with SSH (12 hr) and luterial with SSF (12 hr), was placed in a tube, and glucose (100 mg/mL) and ADP substrate (1 mM) were added thereto, followed by culture in water bath at 37° C. At 30-min intervals after the start of the culture, 100 μl of a sample was collected, placed in a tube, and diluted 10-fold with 900 μl of distilled water. Then, 10 μl of the sample was transferred into a fresh tube, and 100 μl of luciferase reagent contained in the ATP kit was added thereto, and measurement was immediately performed five times using a luminometer.

| ATP concentration in luterial media with additive [2] | SMILES | IC50 [1] |
| --- | --- | --- |
| – | N.N.[Cl][Pt][Cl] [cisplatin] | 100 µM |
| higher than that in the SSH-added group | O=c1c(O)c(-c2ccc(O)c(O)c2)oc2cc(O)ccc12 [SSF, fisetin] | – |
